# Results from patent publication EP2186507A2, “A liquid pharmaceutical formulation comprising nicotine for the administration to the oral cavity” (McNeil AB, priority 2001, dated 2003).
# Read-outs that look alike come from different tables or passages of the source.
# Columns and labels:
# [1] = Text: Absorption of nicotine from the oral cavity to the systemic circulation is dependent on the pH of the saliva and the pKa of nicotine, which is about 7.8. Assuming a pH of the saliva of 6.8 only about 10% of the nicotine in saliva will be in the free base form. Thus, in order to promote absorption of nicotine in a free base form, which is the form predominantly absorbed through the mucosa, the pH of the saliva must be increased. At a pH of 8.8 about 90% of the nicotine in saliva will then be in the free base form.
# [2] = Merck Index; cited from earlier work
compound,measurement,setting,value
"CN1CCCC1c1cccnc1 (stereo not drawn) [nicotine, 3-(1-methyl-2-pyrrolidinyl)-pyridine]",nicotine in saliva in the free base form,[1]; assuming a pH of the saliva of 6.8,about 10%
same,nicotine in saliva in the free base form,[1]; at a pH of 8.8,about 90%
same,amount that may kill an adult,[2],Approximately forty
